Results reported in ChEMBL document CHEMBL1201862, “PubChem BioAssay data set” (2004).
Calls of active or inactive are those of the source.

Key:
[1] = NIH3T3 cell viability loss – ATP luminescence, mouse fibroblasts, counter-screen, dose response (AID 2010); type: functional, cell-based;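 further: cells exposed to compound for about 90 hours before reading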
[2] = molecular target: T1, NACHT, LRR and PYD domains-containing protein 1 (Homo sapiens, UniProt Q9C000); assay: NALP1 inhibitors in yeast, dose response, luminescent (AID 488860); type: functional
T1 sequence (Q9C000 whole entry): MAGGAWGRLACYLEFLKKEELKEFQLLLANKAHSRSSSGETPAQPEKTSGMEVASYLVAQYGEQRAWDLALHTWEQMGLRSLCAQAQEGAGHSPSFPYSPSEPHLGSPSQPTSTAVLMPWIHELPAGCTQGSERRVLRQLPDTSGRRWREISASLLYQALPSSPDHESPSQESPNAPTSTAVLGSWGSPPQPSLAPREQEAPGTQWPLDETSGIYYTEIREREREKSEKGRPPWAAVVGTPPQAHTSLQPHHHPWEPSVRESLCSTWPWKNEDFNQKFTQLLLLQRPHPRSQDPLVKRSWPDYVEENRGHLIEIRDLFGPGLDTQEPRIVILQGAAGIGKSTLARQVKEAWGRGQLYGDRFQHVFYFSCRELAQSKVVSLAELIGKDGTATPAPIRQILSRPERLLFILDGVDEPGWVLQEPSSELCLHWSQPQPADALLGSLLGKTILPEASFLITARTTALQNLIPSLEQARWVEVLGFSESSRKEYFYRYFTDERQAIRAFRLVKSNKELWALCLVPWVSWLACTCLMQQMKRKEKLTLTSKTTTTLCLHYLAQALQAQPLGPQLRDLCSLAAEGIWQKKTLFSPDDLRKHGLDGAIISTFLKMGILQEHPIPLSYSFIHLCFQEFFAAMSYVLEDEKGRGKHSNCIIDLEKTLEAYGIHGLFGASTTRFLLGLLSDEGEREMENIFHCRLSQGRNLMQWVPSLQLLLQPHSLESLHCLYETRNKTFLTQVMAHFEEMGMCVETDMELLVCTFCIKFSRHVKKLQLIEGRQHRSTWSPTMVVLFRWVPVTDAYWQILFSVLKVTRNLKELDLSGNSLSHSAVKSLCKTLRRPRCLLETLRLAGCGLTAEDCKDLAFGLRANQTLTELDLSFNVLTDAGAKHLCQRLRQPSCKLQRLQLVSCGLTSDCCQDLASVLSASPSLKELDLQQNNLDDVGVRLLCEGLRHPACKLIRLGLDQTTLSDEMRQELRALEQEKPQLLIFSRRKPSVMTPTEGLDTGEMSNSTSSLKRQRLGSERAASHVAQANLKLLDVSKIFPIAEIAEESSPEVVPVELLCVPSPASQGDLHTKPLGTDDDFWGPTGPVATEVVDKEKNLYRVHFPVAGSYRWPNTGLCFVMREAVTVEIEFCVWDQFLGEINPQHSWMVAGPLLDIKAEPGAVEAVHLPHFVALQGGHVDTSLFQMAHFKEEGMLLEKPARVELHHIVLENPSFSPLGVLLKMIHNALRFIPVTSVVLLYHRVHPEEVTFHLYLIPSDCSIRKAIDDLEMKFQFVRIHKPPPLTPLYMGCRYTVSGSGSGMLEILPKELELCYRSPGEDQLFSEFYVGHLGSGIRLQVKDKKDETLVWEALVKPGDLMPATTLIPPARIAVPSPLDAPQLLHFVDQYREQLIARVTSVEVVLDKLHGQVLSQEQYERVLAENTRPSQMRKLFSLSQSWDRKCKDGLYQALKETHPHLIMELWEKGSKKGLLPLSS

[3] = Trypanosoma cruzi growth suppression in host cells – NIH3T3 host cells, beta-gal luminescence, confirmation (AID 2044); type: functional, cell-based;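 further: intracellular parasites grown in NIH/3T3 mouse fibroblasts as host cells; luminescent beta-galactosidase reporter signal from transgenic T. cruzi replicating inside host cells; inhibitors lower the luminescence signal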
Saccharomyces cerevisiae = assay: S. cerevisiae Caspase-1/ASC signal blockers IC50, NALP1 inhibitor project selectivity test (AID 488863); type: functional, organism-based
fMet-Leu-Phe receptor = molecular target: T2, fMet-Leu-Phe receptor (Homo sapiens, UniProt P21462); assay: formyl peptide receptor binders – dose response (AID 519); type: functional
T2 sequence (P21462 whole entry): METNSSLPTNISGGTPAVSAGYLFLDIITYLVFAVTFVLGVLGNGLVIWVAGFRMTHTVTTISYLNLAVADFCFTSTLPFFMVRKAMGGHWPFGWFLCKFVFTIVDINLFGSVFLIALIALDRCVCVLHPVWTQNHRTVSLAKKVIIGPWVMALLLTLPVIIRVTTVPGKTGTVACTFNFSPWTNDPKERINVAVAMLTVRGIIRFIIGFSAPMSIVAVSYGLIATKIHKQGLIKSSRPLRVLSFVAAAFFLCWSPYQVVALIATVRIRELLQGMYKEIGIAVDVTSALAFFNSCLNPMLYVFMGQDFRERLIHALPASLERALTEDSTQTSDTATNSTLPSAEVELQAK

[4] = molecular target: T3, G-protein coupled receptor 55 (Homo sapiens, UniProt Q9Y2T6); assay: selective activators of receptor GPR55 – imaging, U2OS cells, beta-arrestin-GFP redistribution, primary screen (AID 1961); type: functional
T3 sequence (Q9Y2T6 whole entry): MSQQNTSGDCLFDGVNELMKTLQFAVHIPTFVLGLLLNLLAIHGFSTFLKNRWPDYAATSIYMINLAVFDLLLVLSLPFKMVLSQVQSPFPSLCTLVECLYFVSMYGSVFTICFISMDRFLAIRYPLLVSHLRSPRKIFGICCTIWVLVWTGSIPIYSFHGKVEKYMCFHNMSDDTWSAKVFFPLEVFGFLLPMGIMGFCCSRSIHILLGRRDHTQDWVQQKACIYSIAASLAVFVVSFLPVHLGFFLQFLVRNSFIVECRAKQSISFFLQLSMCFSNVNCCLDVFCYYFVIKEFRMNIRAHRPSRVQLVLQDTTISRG

Cytochrome P450 1A2 = molecular target: T4, Cytochrome P450 1A2 (Homo sapiens, UniProt P05177);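 further: PubChem cytochrome P450 panel assay, CYP1A2 panel member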
T4 sequence (P05177 whole entry): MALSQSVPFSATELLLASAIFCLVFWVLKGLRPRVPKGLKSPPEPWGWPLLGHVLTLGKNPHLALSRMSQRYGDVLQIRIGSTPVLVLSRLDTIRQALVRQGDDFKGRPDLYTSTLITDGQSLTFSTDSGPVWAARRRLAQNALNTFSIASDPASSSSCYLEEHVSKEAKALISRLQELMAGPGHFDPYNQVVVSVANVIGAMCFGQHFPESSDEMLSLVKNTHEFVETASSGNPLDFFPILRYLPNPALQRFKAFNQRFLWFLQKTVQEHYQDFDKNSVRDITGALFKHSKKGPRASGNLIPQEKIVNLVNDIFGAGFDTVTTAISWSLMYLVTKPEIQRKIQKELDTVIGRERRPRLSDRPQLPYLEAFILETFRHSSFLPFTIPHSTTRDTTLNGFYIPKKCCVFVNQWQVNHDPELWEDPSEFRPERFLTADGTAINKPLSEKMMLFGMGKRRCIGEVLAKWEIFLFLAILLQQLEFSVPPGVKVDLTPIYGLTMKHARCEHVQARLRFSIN

Cytochrome P450 2D6 = Cytochrome P450 2D6 (Homo sapiens, UniProt P10635);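 further: CYP2D6 member of a cytochrome P450 panel assay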
Cytochrome P450 2D6, sequence (P10635 whole entry): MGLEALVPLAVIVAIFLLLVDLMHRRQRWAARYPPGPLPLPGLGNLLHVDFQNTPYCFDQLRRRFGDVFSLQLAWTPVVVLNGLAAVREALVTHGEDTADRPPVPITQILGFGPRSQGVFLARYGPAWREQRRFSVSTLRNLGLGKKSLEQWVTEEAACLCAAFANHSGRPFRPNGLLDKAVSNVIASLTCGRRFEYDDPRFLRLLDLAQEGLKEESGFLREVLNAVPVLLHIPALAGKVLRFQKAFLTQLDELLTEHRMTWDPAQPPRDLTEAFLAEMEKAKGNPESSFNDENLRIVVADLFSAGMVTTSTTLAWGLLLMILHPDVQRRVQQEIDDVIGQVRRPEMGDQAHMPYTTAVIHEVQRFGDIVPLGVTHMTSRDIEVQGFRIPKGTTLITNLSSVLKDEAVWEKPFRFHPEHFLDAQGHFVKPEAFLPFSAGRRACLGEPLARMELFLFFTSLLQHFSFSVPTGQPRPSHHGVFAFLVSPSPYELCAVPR

[5] = molecular target: Glyceraldehyde-3-phosphate dehydrogenase (Homo sapiens, UniProt P04406)
Glyceraldehyde-3-phosphate dehydrogenase, sequence (P04406 whole entry): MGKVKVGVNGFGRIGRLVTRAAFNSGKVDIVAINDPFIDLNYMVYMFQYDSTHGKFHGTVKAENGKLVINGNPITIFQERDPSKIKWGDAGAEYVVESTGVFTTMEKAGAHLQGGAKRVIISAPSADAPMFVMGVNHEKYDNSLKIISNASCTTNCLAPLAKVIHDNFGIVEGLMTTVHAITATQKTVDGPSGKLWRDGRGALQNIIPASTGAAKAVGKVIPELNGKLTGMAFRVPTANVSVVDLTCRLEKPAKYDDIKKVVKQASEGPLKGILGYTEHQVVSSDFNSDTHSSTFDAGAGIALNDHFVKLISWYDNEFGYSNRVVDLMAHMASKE

[6] = molecular target: Voltage-dependent T-type calcium channel subunit alpha-1H (Homo sapiens, UniProt O95180); type: functional;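 further: channel activity triggered by adding a high calcium stimulation buffer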
Voltage-dependent T-type calcium channel subunit alpha-1H, sequence (O95180 whole entry): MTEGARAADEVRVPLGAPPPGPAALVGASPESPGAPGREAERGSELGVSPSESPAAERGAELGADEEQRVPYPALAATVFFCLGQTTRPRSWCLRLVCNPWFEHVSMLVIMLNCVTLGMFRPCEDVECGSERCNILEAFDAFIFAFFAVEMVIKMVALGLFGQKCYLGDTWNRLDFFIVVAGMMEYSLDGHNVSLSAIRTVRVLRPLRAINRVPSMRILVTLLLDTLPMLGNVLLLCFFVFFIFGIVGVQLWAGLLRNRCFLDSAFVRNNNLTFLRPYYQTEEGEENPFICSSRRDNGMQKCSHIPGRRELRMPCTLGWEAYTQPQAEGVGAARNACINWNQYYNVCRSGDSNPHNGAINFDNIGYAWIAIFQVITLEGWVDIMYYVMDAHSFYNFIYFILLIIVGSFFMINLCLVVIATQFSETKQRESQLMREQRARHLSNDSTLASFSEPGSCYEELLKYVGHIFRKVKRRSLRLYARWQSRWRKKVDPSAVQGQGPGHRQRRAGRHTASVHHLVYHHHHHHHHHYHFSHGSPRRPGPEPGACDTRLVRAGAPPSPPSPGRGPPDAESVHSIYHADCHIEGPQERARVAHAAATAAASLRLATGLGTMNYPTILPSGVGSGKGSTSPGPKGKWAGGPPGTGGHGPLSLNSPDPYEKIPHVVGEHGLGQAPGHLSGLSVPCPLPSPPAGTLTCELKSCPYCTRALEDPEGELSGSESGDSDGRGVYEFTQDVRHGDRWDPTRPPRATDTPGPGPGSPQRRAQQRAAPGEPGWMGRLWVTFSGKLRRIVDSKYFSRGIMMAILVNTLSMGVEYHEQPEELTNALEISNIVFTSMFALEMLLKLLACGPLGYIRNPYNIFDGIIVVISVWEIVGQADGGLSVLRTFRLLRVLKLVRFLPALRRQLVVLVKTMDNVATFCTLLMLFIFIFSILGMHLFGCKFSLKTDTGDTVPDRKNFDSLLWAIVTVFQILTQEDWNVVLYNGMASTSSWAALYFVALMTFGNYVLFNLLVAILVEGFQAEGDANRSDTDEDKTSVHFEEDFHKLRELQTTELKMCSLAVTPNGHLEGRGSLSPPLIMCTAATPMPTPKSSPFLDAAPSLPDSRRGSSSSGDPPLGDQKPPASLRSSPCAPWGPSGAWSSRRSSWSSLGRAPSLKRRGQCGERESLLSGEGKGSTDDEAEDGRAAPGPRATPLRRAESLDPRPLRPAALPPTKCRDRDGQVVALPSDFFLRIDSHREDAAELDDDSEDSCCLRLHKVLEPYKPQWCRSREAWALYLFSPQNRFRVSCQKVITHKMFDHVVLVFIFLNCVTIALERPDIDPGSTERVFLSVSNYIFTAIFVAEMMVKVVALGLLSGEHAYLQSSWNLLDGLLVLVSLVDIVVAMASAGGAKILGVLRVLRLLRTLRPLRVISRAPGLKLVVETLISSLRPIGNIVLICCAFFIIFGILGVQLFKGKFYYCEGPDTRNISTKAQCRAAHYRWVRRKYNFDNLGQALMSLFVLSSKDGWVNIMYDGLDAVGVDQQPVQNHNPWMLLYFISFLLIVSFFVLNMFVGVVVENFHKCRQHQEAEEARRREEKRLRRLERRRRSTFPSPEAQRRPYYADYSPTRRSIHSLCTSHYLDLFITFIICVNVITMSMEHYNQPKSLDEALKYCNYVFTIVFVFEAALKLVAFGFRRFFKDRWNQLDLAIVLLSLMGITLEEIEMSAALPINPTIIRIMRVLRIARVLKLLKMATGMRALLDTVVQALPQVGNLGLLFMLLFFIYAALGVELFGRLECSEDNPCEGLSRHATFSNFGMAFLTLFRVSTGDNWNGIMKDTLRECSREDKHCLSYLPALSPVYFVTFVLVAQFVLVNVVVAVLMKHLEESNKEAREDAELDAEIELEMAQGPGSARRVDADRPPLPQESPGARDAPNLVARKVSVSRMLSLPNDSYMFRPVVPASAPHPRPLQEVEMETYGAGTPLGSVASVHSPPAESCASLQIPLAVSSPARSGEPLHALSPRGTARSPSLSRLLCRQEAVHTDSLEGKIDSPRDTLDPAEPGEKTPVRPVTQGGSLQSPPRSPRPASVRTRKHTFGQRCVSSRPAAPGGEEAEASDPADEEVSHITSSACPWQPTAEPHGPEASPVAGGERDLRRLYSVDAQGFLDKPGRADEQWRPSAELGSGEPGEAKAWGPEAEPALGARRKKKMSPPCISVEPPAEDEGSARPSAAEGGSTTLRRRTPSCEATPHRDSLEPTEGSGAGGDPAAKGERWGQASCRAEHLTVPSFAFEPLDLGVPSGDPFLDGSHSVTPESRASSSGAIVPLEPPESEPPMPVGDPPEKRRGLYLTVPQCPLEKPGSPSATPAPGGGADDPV

[7] = molecular target: T3, G-protein coupled receptor 55; assay: inhibition of LPI-stimulated GPR55 beta-arrestin translocation – imaging, U2OS, beta-arrestin-GFP, LPI agonist, primary screen (AID 2013); type: functional;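 further: antagonist potency measured as reduced agonist-driven arrestin aggregation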
[8] = DRD fibroblast viability loss – cell-based, non-viral oncogenic, luminescence, dose response (AID 1934); type: functional; conditions: Homo sapiens
[9] = luciferase reporter signal suppression in cells – H4 neuroglioma cells, luminescence, dose response (AID 1990); type: functional, cell-based
Vero [10] = assay: cells; type: functional, cell-based; conditions: Chlorocebus sabaeus
BJ [11] = assay: BJ-TERT-LT-ST fibroblast viability loss – cell-based, RAS-independent, luminescence, dose response (AID 1935); type: functional; conditions: Homo sapiens;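 further: BJ fibroblasts immortalized with TERT plus LT and ST oncogenes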
[12] = Luminescence Cell-Based Dose Response HTS to Identify Inhibitors of 5'UTR Stem-Loop Driven Prion Protein mRNA Translation in H4 Neuroglioblastoma Cells. [Related pubchem assays: 1827 (Project Summary), 1813 (Primary HTS)]; type: functional
Vero [13] = assay: cells; type: functional; conditions: Chlorocebus sabaeus
[14] = alpha-synuclein stem-loop luciferase translation blockers – H4 neuroglioma cells, luminescence, confirmation (AID 1988); type: functional, cell-based
BJ [15] = assay: BJ-TERT fibroblast viability loss – cell-based, RAS-independent, luminescence, dose response (AID 1933); type: functional; conditions: Homo sapiens
BJ [16] = assay: cells; type: functional, cell-based; conditions: Homo sapiens
CAAX prenyl protease 2 = molecular target: T5, CAAX prenyl protease 2 (Saccharomyces cerevisiae S288c, UniProt Q03530); type: biochemical
T5 sequence (Q03530 whole entry): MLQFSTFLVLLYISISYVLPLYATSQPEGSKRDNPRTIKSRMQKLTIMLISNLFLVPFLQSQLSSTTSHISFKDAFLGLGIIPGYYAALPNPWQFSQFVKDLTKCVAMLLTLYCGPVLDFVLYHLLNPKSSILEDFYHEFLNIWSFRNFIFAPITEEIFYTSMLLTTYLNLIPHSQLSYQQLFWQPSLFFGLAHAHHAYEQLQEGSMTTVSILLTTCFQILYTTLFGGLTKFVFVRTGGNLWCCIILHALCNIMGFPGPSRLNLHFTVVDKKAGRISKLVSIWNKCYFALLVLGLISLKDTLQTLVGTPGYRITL

Beta-galactosidase = Beta-galactosidase (Escherichia coli, UniProt Q8VNN2); assay: PubChem AID 485352; type: functional
Beta-galactosidase, sequence (Q8VNN2 whole entry): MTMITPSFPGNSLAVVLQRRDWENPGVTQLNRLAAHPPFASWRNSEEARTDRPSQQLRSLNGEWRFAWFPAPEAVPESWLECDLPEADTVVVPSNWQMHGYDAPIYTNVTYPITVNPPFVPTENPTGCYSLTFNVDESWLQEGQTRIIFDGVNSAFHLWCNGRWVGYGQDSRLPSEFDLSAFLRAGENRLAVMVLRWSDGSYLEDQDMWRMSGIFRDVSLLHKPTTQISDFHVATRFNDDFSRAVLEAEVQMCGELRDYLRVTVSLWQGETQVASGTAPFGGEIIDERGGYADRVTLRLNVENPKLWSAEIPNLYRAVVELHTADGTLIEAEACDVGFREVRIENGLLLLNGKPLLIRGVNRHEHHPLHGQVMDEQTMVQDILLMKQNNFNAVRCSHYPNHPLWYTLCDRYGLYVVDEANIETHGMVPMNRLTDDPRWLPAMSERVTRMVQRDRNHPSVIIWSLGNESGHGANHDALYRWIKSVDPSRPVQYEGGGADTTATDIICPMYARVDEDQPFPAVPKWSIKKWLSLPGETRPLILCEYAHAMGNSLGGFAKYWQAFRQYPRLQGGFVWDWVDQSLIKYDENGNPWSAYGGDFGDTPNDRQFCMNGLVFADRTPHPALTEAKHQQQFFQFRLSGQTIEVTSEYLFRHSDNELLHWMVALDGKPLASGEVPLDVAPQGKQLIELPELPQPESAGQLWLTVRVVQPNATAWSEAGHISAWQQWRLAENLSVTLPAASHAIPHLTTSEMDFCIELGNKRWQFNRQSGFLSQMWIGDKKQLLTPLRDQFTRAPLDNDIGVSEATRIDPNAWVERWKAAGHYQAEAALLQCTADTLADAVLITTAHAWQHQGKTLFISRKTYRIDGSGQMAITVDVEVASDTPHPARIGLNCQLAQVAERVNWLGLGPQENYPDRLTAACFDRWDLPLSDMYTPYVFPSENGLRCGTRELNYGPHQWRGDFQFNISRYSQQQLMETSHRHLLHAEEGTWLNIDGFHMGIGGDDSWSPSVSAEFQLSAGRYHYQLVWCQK

[17] = molecular target: T6, Type-1 angiotensin II receptor (Homo sapiens, UniProt P30556); assay: antagonism of angiotensin II type 1 receptor – cell-based, uHTS hits, selectivity assay for APJ receptor antagonist project, dose response (AID 463214); type: functional;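 further: antagonist potency against angiotensin II stimulated AT1 response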
T6 sequence (P30556 whole entry): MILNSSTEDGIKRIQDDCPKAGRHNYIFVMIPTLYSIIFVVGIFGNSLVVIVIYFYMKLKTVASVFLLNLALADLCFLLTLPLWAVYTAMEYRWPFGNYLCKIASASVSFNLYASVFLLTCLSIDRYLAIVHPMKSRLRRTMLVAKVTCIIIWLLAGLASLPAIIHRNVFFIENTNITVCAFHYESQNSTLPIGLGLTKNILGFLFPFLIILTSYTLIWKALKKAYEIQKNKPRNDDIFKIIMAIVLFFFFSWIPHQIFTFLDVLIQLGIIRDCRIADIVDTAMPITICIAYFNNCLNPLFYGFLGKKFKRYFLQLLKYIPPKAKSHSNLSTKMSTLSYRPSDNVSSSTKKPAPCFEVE

SMILES: Cc1ccc(C(=O)/C=C\C(=O)c2ccc(C)cc2)cc1
- EC50 [1]: > 60 µM (not active)
- IC50 [2]: 8.75 µM (active)
- EC50 [3]: 1.97 µM (active)
- IC50 (Saccharomyces cerevisiae): 6.51 µM (active)

SMILES: Cc1nn2c(O)c3c(nc2c1-c1cccc2ccccc12)CCC3
- Ki (fMet-Leu-Phe receptor): 53.7 µM (inactive)
- EC50 [4]: 8.52 µM (active)
- AC50 (Cytochrome P450 1A2): 25.1 µM (inconclusive)
- AC50 (Cytochrome P450 2D6): 35.5 µM (inconclusive)

SMILES: O=C(O)c1cccc(N2C(=O)c3ccc4c5c(ccc(c35)C2=O)CC4)c1
- IC50 [5]: > 100 µM (not active)

SMILES: Cc1ccc(CNC(=O)C(=O)NCC2OCCN2S(=O)(=O)c2ccc3c(c2)OCCO3)cc1 (centres undefined)
- EC50 [6]: 4.92 µM (active)

SMILES: CCCn1c(NCc2cc(OC)ccc2OC)nc2ccccc21
- EC50 [6]: 5.97 µM (active)

SMILES: Cc1ccc(C(=O)N(c2ccccc2)C2CC(C)N(C(=O)c3ccco3)c3ccccc32)cc1 (centres undefined)
- IC50 [7]: 2.41 µM (active)

SMILES: Cn1cccc1Cc1nnc(SCC(=O)Nc2cccc(Cl)c2)n1-c1ccc(F)cc1
- EC50 [6]: 1.24 µM (active)

SMILES: CCc1ccc(C(=O)NCc2ccc(Cl)cc2Cl)cc1
- IC50 [2]: 33.9 µM (active)
- IC50 (Saccharomyces cerevisiae): 61 µM (active)

SMILES: CC(=O)Nc1cccc(Oc2ncnc3scc(-c4ccc(C(C)C)cc4)c23)c1
- EC50 [8]: 31.3 µM (active)
- EC50 [4]: 6.01 µM (active)
- EC50 [9]: 21.7 µM (active)
- IC50 (Vero [10]): 17.7 µM (active)
- EC50 (BJ [11]): > 150 µM (inconclusive)
- EC50 [12]: > 120 µM (not active)
- CC50 (Vero [13]): > 25 µM (active)
- EC50 [14]: 18.2 µM (active)
- EC50 (BJ [15]): 42.6 µM (active)
- EC50 (BJ [16]): 61.5 µM (active)

SMILES: COc1ccccc1NC(=O)Cc1nnc(SCC(=O)Nc2nccs2)n1C
- AC50 (CAAX prenyl protease 2): 21.1 µM (active)

SMILES: Cc1ccc(-c2c(C(=O)N/N=C/c3cccc(Cl)c3)nnn2-c2nonc2N)cc1
- EC50 (Beta-galactosidase): > 40 µM (inactive)
- AC50 (CAAX prenyl protease 2): 1.44 µM (active)
- IC50 [17]: > 40 µM (not active)
